pIC50: −log10 of the molar value.

One test concerns the target Factor XIa (Homo sapiens (Human), UniProt P03951). As to the kind of experiment: Factor XIa inhibition assay (FLINT) utilizing a fluorophore-quencher pair peptide substrate. Format: biochemical. The conditions noted are these: 30 min preincubation, kinetic reads over 30 min, 5Fam-KLTRAETV-K5Tamra substrate 15 μM; read-out: FXIa Kin Inh IC50. In short, it runs like this: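 FXIa ([…]) preincubated 30 min with compound (11-point 3-fold dilution, top 100 nM, 2% DMSO), then 15 μM quenched FXI Arg146-based peptide added; Tris pH 7.5, CaCl2, BSA, CHAPS. Fluorescence 485/520 nm read kinetically every 5 min over 30 min at RT; IC50 by 4-parameter fit.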

For another test, the target named is human plasma kallikrein (Homo sapiens (Human), UniProt P03952). As to the kind of experiment: Kallikrein inhibition assay (FLINT) utilizing a quenched AMC peptide substrate. It is filed as biochemical. Conditions: 30 min preincubation, kinetic reads over 30 min, Z-Gly-Pro-Arg-AMC substrate 50 μM; read-out: Kallikrein Kin Inh IC50. In short, it runs like this:
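Enzyme (2 nM final) pre-incubated 30 min at room temperature with compound (11-point, 3-fold, top 1 μM, 2% DMSO), then 50 μM Z-Gly-Pro-Arg-AMC added in Tris pH 7.5 buffer. Kinetic fluorescence 340/440 nm every 5 min over 30 min; IC50 from 4-parameter logistic fit.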

Sequence of Factor XIa (P03951 388-625): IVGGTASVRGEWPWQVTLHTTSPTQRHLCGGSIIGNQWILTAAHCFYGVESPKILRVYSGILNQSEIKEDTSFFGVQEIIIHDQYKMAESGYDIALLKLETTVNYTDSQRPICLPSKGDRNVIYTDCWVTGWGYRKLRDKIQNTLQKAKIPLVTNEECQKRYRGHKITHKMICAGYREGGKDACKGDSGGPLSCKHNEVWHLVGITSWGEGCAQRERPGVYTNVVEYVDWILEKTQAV
Sequence of Factor XIa (P03951 19-387 partner): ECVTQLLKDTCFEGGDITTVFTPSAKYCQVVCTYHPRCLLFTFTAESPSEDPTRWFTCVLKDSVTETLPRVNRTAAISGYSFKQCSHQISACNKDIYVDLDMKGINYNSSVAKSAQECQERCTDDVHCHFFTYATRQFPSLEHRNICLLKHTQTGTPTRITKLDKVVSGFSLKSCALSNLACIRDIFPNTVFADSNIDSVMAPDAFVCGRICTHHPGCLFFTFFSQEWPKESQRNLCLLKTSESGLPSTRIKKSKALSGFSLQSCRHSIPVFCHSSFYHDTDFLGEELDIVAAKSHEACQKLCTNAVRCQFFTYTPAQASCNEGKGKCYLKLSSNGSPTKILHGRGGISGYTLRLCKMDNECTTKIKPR
Sequence of human plasma kallikrein (P03952 391-638): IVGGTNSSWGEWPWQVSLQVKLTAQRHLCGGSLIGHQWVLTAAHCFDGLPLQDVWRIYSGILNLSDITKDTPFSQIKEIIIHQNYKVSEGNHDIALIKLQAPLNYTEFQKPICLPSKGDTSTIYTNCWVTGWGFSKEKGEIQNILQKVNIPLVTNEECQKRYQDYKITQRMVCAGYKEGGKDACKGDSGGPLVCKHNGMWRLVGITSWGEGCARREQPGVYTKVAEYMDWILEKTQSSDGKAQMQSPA
Sequence of human plasma kallikrein (P03952 20-390 partner): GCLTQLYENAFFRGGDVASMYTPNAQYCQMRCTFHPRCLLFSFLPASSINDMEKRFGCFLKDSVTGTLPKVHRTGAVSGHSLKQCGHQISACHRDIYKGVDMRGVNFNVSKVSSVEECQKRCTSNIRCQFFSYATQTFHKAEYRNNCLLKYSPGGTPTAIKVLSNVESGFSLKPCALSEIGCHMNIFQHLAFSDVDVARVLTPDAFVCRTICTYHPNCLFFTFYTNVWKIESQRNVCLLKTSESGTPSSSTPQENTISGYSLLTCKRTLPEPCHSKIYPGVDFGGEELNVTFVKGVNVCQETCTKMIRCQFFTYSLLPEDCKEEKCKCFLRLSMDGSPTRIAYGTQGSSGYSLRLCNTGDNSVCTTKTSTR

As for `CCN(CCO)c1nccc(-c2cnc([C@@H]3CC[C@@H]4CC(c5c(-n6cnnn6)ccc(Cl)c5F)=CC(=O)N43)[nH]2)c1F` (single isomer, unassigned) [Example 136, (3S,8a*R)-7-(3-chloro-2-fluoro-6-(1H-tetrazol-1-yl)phenyl)-3-(5-(2-(ethyl(2-hydroxyethyl)amino)-3-fluoropyridin-4-yl)-1H-imidazol-2-yl)-2,3,8,8a-tetrahydroindolizin-5(1H)-one], the negative logarithm of the IC50 (pIC50) is 8.32 at Factor XIa and 8.20 on human plasma kallikrein.
Taken in the same sequence, the figures for `N#CC1(c2nccc(-c3cnc([C@@H]4CC[C@@H]5CC(c6c(-n7cnnn7)ccc(Cl)c6F)=CC(=O)N54)[nH]3)c2F)COC1` (single isomer, unassigned) [Example 138, 3-(4-(2-((3S,8aR*)-7-(3-chloro-2-fluoro-6-(1H-tetrazol-1-yl)phenyl)-5-oxo-1,2,3,5,8,8a-hexahydroindolizin-3-yl)-1H-imidazol-5-yl)-3-fluoropyridin-2-yl)oxetane-3-carbonitrile] were 7.49 and 6.86.
In the case of `N#CC1(c2nccc(-c3cnc([C@@H]4CC[C@@H]5CC(c6c(-n7cnnn7)ccc(Cl)c6F)=CC(=O)N54)[nH]3)c2F)CC1` (single isomer, unassigned) [Example 139, 1-(4-(2-((3S,8a*R)-7-(3-chloro-2-fluoro-6-(1H-tetrazol-1-yl)phenyl)-5-oxo-1,2,3,5,8,8a-hexahydroindolizin-3-yl)-1H-imidazol-5-yl)-3-fluoropyridin-2-yl)cyclopropane-1-carbonitrile], the negative logarithm of the IC50 (pIC50) at Factor XIa is 7.54; at human plasma kallikrein, 7.66.
The matching figures for `O=C1C=C(c2c(-n3cc(C(F)(F)F)nn3)ccc(Cl)c2F)C[C@@H]2CC[C@H](c3ncc(-c4c[nH]c5ncccc45)[nH]3)N12` (single isomer, unassigned) [Example 140, (3*R,8aS)-3-(5-(1H-pyrrolo[2,3-b]pyridin-3-yl)-1H-imidazol-2-yl)-7-(3-chloro-2-fluoro-6-(4-(trifluoromethyl)-1H-1,2,3-triazol-1-yl)phenyl)-2,3,8,8a-tetrahydroindolizin-5(1H)-one]: 8.54 and 8.21.
Consider `C[C@@H](Oc1nccc(-c2cnc([C@@H]3CC[C@@H]4CC(c5c(-n6cnnn6)ccc(Cl)c5F)=CC(=O)N43)[nH]2)c1F)c1ncco1` (single isomer, unassigned) [Example 141, (3*S,8a*R)-7-(3-chloro-2-fluoro-6-(1H-tetrazol-1-yl)phenyl)-3-(5-(3-fluoro-2-((*R)-1-(oxazol-2-yl)ethoxy)pyridin-4-yl)-1H-imidazol-2-yl)-2,3,8,8a-tetrahydroindolizin-5(1H)-one], for which the pIC50 was 7.97 at Factor XIa and 7.89 at human plasma kallikrein.
Turning to `C[C@H](Oc1nccc(-c2cnc([C@@H]3CC[C@@H]4CC(c5c(-n6cnnn6)ccc(Cl)c5F)=CC(=O)N43)[nH]2)c1F)c1ncco1` (single isomer, unassigned) [Example 142, (3*S,8a*R)-7-(3-chloro-2-fluoro-6-(1H-tetrazol-1-yl)phenyl)-3-(5-(3-fluoro-2-((*S)-1-(oxazol-2-yl)ethoxy)pyridin-4-yl)-1H-imidazol-2-yl)-2,3,8,8a-tetrahydroindolizin-5(1H)-one], the pIC50 on Factor XIa is 8.21; on human plasma kallikrein, 7.97.
`O=C1C=C(c2c(-n3cnnn3)ccc(Cl)c2F)C[C@H]2CC[C@@H](c3ncc(-c4ccnc(C[C@H](O)C(F)(F)F)c4F)[nH]3)N12` (single isomer, unassigned) [Example 143, (3S,8aR)-7-(3-chloro-2-fluoro-6-(1H-tetrazol-1-yl)phenyl)-3-(5-(3-fluoro-2-((*S)-3,3,3-trifluoro-2-hydroxypropyl)pyridin-4-yl)-1H-imidazol-2-yl)-2,3,8,8a-tetrahydroindolizin-5(1H)-one]: the negative-log IC50 (pIC50) is 8.62 at Factor XIa and 7.48 at human plasma kallikrein.
Taken in the same sequence, the figures for `O=C1C=C(c2c(-n3cnnn3)ccc(Cl)c2F)C[C@H]2CC[C@@H](c3ncc(-c4ccnc(C[C@@H](O)C(F)(F)F)c4F)[nH]3)N12` (single isomer, unassigned) [Example 144, (3S,8aR)-7-(3-chloro-2-fluoro-6-(1H-tetrazol-1-yl)phenyl)-3-(5-(3-fluoro-2-((*R)-3,3,3-trifluoro-2-hydroxypropyl)pyridin-4-yl)-1H-imidazol-2-yl)-2,3,8,8a-tetrahydroindolizin-5(1H)-one] were 8.51 and 7.36.
As for `O=C1C=C(c2c(-n3cc(C(F)(F)F)nn3)ccc(Cl)c2F)C[C@H]2CC[C@@H](c3ncc(-c4ccc5[nH]c(=O)ccc5c4)[nH]3)N12` (single isomer, unassigned) [Example 152, 6-[2-[(3S,8a*R)-7-[3-chloro-2-fluoro-6-[4-(trifluoromethyl)triazol-1-yl]phenyl]-5-oxo-2,3,8,8a-tetrahydro-1H-indolizin-3-yl]-1H-imidazol-5-yl]-1H-quinolin-2-one], the negative-log IC50 (pIC50) was 9.15 on Factor XIa and 9.00 at human plasma kallikrein.
The matching figures for `O=C1C=C(c2c(-n3cnnn3)ccc(Cl)c2F)C[C@H]2CC[C@@H](c3ncc(-c4ccnc(OC[C@@H]5COCCO5)c4F)[nH]3)N12` (single isomer, unassigned) [Example 157, (3*S,8aR)-3-(5-(2-(((S)-1,4-dioxan-2-yl)methoxy)-3-fluoropyridin-4-yl)-1H-imidazol-2-yl)-7-(3-chloro-2-fluoro-6-(1H-tetrazol-1-yl)phenyl)-2,3,8,8a-tetrahydroindolizin-5(1H)-one]: 8.70 and 8.17.
Taken in the same sequence, the figures for `CC(C)(O)CCc1nccc(-c2cnc([C@@H]3CC[C@@H]4CC(c5c(-n6cnnn6)ccc(Cl)c5F)=CC(=O)N43)[nH]2)c1F` (single isomer, unassigned) [Example 158, (3*S,8a*R)-7-(3-chloro-2-fluoro-6-(1H-tetrazol-1-yl)phenyl)-3-(5-(3-fluoro-2-(3-hydroxy-3-methylbutyl)pyridin-4-yl)-1H-imidazol-2-yl)-2,3,8,8a-tetrahydroindolizin-5(1H)-one] were 9.00 and 8.11.
Taken in the same sequence, the figures for `CC(C)(O)CCc1nccc(-c2cnc([C@@H]3CC[C@H]4CC(c5c(-n6cnnn6)ccc(Cl)c5F)=CC(=O)N43)[nH]2)c1F` (single isomer, unassigned) [Example 159, (3*S,8a*S)-7-(3-chloro-2-fluoro-6-(1H-tetrazol-1-yl)phenyl)-3-(5-(3-fluoro-2-(3-hydroxy-3-methylbutyl)pyridin-4-yl)-1H-imidazol-2-yl)-2,3,8,8a-tetrahydroindolizin-5(1H)-one] were 8.27 and 7.65.
Regarding `O=C1C=C(c2c(-n3cnnn3)ccc(Cl)c2F)C[C@H]2CC[C@H](c3ncc(-c4ccnc(C5(O)CC5)c4F)[nH]3)N12` (single isomer, unassigned) [Example 162, (3*R,8aR)-7-(3-chloro-2-fluoro-6-(1H-tetrazol-1-yl)phenyl)-3-(5-(3-fluoro-2-(1-hydroxycyclopropyl)pyridin-4-yl)-1H-imidazol-2-yl)-2,3,8,8a-tetrahydroindolizin-5(1H)-one], the negative-log IC50 (pIC50) on Factor XIa is 8.38; at human plasma kallikrein, 7.51.
As to `NC(=O)Cc1nccc(-c2cnc([C@@H]3CC[C@@H]4CC(c5c(-n6cc(C(F)(F)F)nn6)ccc(Cl)c5F)=CC(=O)N43)[nH]2)c1F` (single isomer, unassigned) [Example 165, 2-(4-(24(3*S,8a*R)-7-(3-chloro-2-fluoro-6-(4-(trifluoromethyl)-1H-1,2,3-triazol-1-yl)phenyl)-5-oxo-1,2,3,5,8,8a-hexahydroindolizin-3-yl)-1H-imidazol-5-yl)-3-fluoropyridin-2-yl)acetamide], the pIC50 was 8.10 on Factor XIa and 6.91 at human plasma kallikrein.
Taken in the same sequence, the figures for `C[C@H](CO)Oc1nccc(-c2cnc([C@@H]3CC[C@@H]4CC(c5c(-n6cnnn6)ccc(Cl)c5F)=CC(=O)N43)[nH]2)c1F` (single isomer, unassigned) [Example 168, (3S,8a*R)-7-(3-chloro-2-fluoro-6-(1H-tetrazol-1-yl)phenyl)-3-(5-(3-fluoro-2-(((R)-1-hydroxypropan-2-yl)oxy)pyridin-4-yl)-1H-imidazol-2-yl)-2,3,8,8a-tetrahydroindolizin-5(1H)-one] were 9.10 and 8.31.
Regarding `O=C1C=C(c2c(-n3cnnn3)ccc(Cl)c2F)C[C@@H]2CC[C@@H](c3ncc(-c4ccnc([C@H](O)C(F)(F)F)c4F)[nH]3)N12` (single isomer, unassigned) [Example 170], the pIC50 at Factor XIa was 7.75; on human plasma kallikrein, 7.50.
The matching figures for `O=C1C=C(c2c(-n3cnnn3)ccc(Cl)c2F)C[C@H]2CC[C@@H](c3ncc(-c4ccnc([C@@H](O)C(F)(F)F)c4F)[nH]3)N12` (single isomer, unassigned) [Example 171, (3*S,8a*R)-7-(3-chloro-2-fluoro-6-(1H-tetrazol-1-yl)phenyl)-3-(5-(3-fluoro-2-((*R)-2,2,2-trifluoro-1-hydroxyethyl)pyridin-4-yl)-1H-imidazol-2-yl)-2,3,8,8a-tetrahydroindolizin-5(1H)-one]: 8.39 and 7.50.
The matching figures for `O=C1C=C(c2c(-n3cnnn3)ccc(Cl)c2F)C[C@@H]2CC[C@@H](c3nc(Cl)c(-c4ccnc([C@H](O)C(F)(F)F)c4)[nH]3)N12` (single isomer, unassigned) [Example 172, (3*S,8a*S)-7-(3-chloro-2-fluoro-6-(1H-tetrazol-1-yl)phenyl)-3-(4-chloro-5-(2-((*S)-2,2,2-trifluoro-1-hydroxyethyl)pyridin-4-yl)-1H-imidazol-2-yl)-2,3,8,8a-tetrahydroindolizin-5(1H)-one]: 8.44 and 8.21.

The pIC50 is the negative decadic logarithm of the IC50, by convention in mol/L.
